Test results taken from PMC10104807, “Modulation of tau tubulin kinases (TTBK1 and TTBK2) impacts ciliogenesis” (Scientific Reports, 2023).
Where “and” joins values, the source holds several entries; their conditions need not be identical. Equal values may be shown once. Read-outs that look alike come from different tables or passages of the source.

Columns and labels:
[1] = tested on: 403 wild-type (WT) human kinases; experiment: DiscoverX scanMAX kinome-wide selectivity; assay type: binding; conditions: for # scanMAX kinases with PoC < 10: 1 μM; for S10(1 μM): share of 403 WT human kinases with PoC < 10 at 1 μM
Description: This panel includes 403 wild-type (WT) human kinases but not TTBK1/2. […] Substantial overlap between the MRC and DiscoverX scanMAX kinase panels allows the comparison of results for the same kinases in two different assay formats (enzymatic versus binding, respectively) at the same concentration. Selectivity results are included in two columns within Table 1. […] The rightmost column converts this selectivity score into the number of kinases with a PoC < 10 in the scanMAX panel.
The Eurofins DiscoverX Corporation scanMAX assay platform was employed to assess the selectivity of specific analogs at a single concentration (1 µM). As described previously, this assay platform profiles a compound against 403 wild-type human kinases and delivers percent of control (PoC) values. These percent of control values are included in Table 1 and corresponding kinome tree diagrams as well as tables for each analog included in Fig. S1.

TAOK3 = target: T1, TAOK3 (Homo sapiens, UniProt Q9H2K8); experiment: Eurofins enzymatic radiometric kinase assay; assay type: biochemical; conditions: ATP at Km, duplicate
T1 construct: purchased Eurofins (radiometric) / Eurofins DiscoverX scanMAX / Reaction Biology / SignalChem
T1 sequence (Q9H2K8 1-898): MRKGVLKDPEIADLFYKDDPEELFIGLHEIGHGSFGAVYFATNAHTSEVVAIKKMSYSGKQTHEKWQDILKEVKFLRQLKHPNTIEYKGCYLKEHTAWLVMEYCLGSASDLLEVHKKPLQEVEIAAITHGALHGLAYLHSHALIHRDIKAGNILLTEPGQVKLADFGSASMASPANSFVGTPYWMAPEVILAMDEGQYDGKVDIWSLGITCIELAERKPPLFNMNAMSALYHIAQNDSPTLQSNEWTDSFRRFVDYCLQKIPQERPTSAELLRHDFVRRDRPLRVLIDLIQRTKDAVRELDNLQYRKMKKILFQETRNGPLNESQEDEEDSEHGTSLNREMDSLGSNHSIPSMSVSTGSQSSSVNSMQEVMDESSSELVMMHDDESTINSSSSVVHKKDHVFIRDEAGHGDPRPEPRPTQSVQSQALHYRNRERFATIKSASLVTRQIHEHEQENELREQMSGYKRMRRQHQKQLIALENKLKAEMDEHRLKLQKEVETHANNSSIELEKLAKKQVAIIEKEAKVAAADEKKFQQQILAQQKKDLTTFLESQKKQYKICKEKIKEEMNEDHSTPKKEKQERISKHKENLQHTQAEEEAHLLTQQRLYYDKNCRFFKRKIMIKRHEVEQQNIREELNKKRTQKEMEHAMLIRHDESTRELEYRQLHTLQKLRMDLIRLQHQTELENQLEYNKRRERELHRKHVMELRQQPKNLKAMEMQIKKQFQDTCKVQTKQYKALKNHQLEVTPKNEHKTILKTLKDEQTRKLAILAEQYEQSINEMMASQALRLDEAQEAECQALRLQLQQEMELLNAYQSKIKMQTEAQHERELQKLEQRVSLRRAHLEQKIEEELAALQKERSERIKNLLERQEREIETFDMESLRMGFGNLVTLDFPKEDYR
Procedure: The column labeled “# < 10 PoC in enzyme panel” in Table 1 reports the number of kinases in this 17-member panel inhibited > 90% by each analog.
Details about the substrate used, protein constructs, controls, and assay protocol for these kinase assays are available at the Eurofins website: https://www.eurofinsdiscoveryservices.com. Reaction Biology Corp. (RBC) radiometric HotSpot kinase assays were carried out at the Km value for ATP in dose–response (10-pt curve) format for MYLK4, RIPK5, and YSK4 in Table S2. Details about the substrate used, protein constructs, controls, and assay protocol for these kinase assays are available at the RBC website: https://www.reactionbiology.com/list-kinase-targets-us-facility. SignalChem developed an ADP-Glo assay to test for enzymatic inhibition of PIKfyve in dose–response (10-pt curve) format in duplicate.

TTBK2 = target: T2, TTBK2 (Homo sapiens, UniProt Q6IQ55); experiment: Eurofins enzymatic radiometric kinase assay; assay type: biochemical; conditions: for TTBK2 PoC: 1 μM, duplicate, lower = greater inhibition
T2 construct: purchased Eurofins
T2 sequence (Q6IQ55 whole entry): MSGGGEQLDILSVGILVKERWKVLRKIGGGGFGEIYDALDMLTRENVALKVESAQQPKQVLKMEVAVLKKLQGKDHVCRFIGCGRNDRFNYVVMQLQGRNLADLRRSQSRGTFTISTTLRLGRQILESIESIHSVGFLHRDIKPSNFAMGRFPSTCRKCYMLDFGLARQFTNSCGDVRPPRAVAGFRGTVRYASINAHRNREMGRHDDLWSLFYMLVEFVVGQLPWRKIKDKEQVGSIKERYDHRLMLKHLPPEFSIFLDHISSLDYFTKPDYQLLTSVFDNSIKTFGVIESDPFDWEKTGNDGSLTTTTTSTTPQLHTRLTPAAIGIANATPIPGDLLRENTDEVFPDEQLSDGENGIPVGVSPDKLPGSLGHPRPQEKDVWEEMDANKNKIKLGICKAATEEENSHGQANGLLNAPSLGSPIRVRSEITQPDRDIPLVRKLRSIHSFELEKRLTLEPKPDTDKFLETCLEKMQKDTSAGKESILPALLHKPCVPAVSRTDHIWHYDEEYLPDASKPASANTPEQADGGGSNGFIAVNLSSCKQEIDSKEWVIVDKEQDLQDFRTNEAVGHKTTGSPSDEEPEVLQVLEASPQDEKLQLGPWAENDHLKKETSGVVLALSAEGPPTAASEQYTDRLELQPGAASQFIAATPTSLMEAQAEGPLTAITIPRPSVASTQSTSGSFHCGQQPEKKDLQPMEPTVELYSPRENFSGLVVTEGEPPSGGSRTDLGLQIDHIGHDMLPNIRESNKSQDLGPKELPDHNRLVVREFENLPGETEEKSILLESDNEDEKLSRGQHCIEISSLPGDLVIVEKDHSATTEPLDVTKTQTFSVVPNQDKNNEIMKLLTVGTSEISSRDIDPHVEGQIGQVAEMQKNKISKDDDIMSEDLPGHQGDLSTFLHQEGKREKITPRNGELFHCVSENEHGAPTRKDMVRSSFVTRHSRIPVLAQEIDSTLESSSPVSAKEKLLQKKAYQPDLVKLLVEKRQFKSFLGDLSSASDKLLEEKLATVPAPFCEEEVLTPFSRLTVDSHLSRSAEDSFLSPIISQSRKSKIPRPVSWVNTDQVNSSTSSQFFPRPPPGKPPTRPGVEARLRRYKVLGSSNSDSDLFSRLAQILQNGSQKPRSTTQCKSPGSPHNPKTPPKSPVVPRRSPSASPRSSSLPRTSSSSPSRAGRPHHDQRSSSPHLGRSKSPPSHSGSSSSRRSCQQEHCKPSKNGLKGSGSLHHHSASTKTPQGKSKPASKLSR

TTBK2 kinase domain = target: T3, TTBK2 kinase domain (Homo sapiens, UniProt Q6IQ55); experiment: Thermal shift assay; assay type: binding; conditions: kinase domain 2 µM, inhibitor 10 µM
T3 construct: Either the TTBK1 or TTBK2 kinase domain at 2 µM
T3 sequence (Q6IQ55 21-284 limits assumed): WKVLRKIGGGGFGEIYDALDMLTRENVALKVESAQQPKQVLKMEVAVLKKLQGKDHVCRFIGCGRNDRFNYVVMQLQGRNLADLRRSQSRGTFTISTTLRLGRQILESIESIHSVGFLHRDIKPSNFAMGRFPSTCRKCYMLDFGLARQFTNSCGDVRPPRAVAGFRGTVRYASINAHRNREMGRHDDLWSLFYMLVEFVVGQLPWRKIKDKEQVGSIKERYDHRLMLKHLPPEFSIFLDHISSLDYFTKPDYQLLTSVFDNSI
Procedure: Either the TTBK1 or TTBK2 kinase domain at 2 µM in 10 mM HEPES pH 7.5 and 500 mM NaCl was mixed with the inhibitors at 10 µM in the presence of SyPRO orange dye (Invitrogen). A Real-Time PCR Mx3005p machine (Stratagene) was used to measure the fluorescence spectrum. The Tm shift assays and data evaluation for melting temperatures were performed according to the previously described protocol.

NLuc-TTBK2 = target: T4, NLuc-TTBK2 (Homo sapiens, UniProt Q6IQ55); experiment: TTBK2 NanoBRET cellular target engagement assay in HEK293 cells; assay type: cell-based
T4 construct: host or cells: HEK293
T4 sequence (Q6IQ55 whole entry): as the sequence (Q6IQ55 whole entry) above
Procedure: HEK293 cells were transfected with constructs of TTBK1 or TTBK2 tagged with NLuc on the N- or C-terminus as previously described[43] Constructs for NanoBRET measurements of TTBK1 (NLuc-TTBK1 and TTBK1-NLuc) and TTBK2 (NLuc-TTBK2 and TTBK2-NLuc) were kindly provided by Promega. NLuc orientations used in the respective assays are indicated. Cells were plated in 96-well tissue culture treated plates (Corning 3917) at a cell density of 2 × 10^5 cells/mL, with a total volume of 100 μL per well in DMEM. […] NanoBRET plates were read after addition of 50 μL of a stock solution (3X) containing NanoBRET NanoGlo substrate (Promega N2161), extracellular NanoLuc inhibitor (Promega N2161) and Opti-MEM. For a 96-well plate the 3X stock solution was prepared with 30 μL of NanoBRET NanoGlo substrate, 10 μL of extracellular NanoLuc inhibitor, and 4960 μL of Opti-MEM without phenol red. […] HEK293 cells were transfected with NLuc-TTBK1 or NLuc-TTBK2. […] One biological replicate was plotted in GraphPad Prism with log[inhibitor] vs. response (three parameters) and included in Fig. 3C. NanoBRET assays were carried out in dose-response format as described previously. NLuc orientations used in the respective assays are as follows: NLuc-TTBK1, NLuc-TTBK2, and PIP4K2C-NLuc (for PI5[…]γ). […] Data are reported as IC50 ± standard error mean (SEM). For PI5[…]γ, 9 was tested in 12-point dose-response format with a top concentration of 10 μM (data in Table S2). One biological replicate was plotted in GraphPad Prism with log[inhibitor] vs. response (three parameters).

[2] = target: 17-member enzymatic kinase assay panel; experiment: 17-member enzymatic kinase panel, number of kinases inhibited; assay type: biochemical; conditions: 1 μM; of 17 kinases
[3] = intact HEK293 cells, 2 μM tracer 29, read-out: TTBK2 intact cell NB IC50
[4] = permeabilized HEK293 cells (digitonin), 2 μM tracer 29, read-out: TTBK2 permeabilized cell NB IC50
[5] = ATP at Km, dose–response 9-pt curve

Row | Compound | # scanMAX kinases with PoC < 10 [1] | S10(1 μM) [1] | TAOK3 PoC at 1 μM (TAOK3) [PoC] | TTBK2 PoC (TTBK2; ATP at Km) | ΔTm at 10 µM (TTBK2 kinase domain) [°C] | IC50 (NLuc-TTBK2; [3]) [µM] | IC50 (NLuc-TTBK2; [4]) [µM] | # kinases < 10 PoC in enzyme panel [2] | IC50 (TTBK2) [µM] | IC50 (TTBK2; [5]) [µM] | ΔTm TTBK2 (TTBK2 kinase domain) [°C] | IC50 (NLuc-TTBK2; tracer titration experiment, 2 μM tracer 29, n = 1, read-out: NL-TTBK2 IC50, tracer titration) [µM]
1 | CC(C)(O)C#Cc1ccc2[nH]c3c(c2c1)-c1nc(N)ncc1CCC3 [AMG28, reference compound] | 21 | 0.052 | 9 | 20 PoC | 6.2 |  |  |  |  |  |  | 
2 | CC(C)(O)C#Cc1ccc2[nH]c3c(c2c1)-c1nc(N)ncc1CC3 [Compound 1] | 20 | 0.05 | 11 | 43 PoC |  | 16 | 3.6 | 2 | > 1 | 1.21 | 5.6 | 
3 | CC(C)(O)C#Cc1ccc2[nH]c3c(c2c1)-c1nc(N)ncc1CCCC3 [Compound 2] |  |  | 78 | 69 PoC and 69/NT PoC |  | > 30 | 17 | 1 |  |  |  | 
4 | CC(C)(O)C#Cc1ccc2[nH]cc(-c3ccnc(N)n3)c2c1 [Compound 3] | 34 | 0.084 | 20 | 24 PoC |  | 11.7 ± 3.7 | 2.52 ± 0.62 | 3 |  | 0.384 | 6.2 | 6.9
5 | COC(C)(C)C#Cc1ccc2[nH]c3c(c2c1)-c1nc(N)ncc1CCC3 [Compound 11] |  |  | 89 | 110 PoC and 110/NT PoC |  | > 30 | > 30 | 1 |  |  |  | 
